{"source": "paper PMC9062515", "about": "“Identification of the Biosynthetic Pathway of Glycine Betaine That Is Responsible for Salinity Tolerance in Halophilic Thioalkalivibrio versutus D301” (Frontiers in Microbiology, 2022)", "key": {"TvSDMT": {"target": "T1, TvSDMT (Thioalkalivibrio versutus, UniProt A0A0G3G397)", "T1 construct": "gene TVD_00880; His-tagged, pET-28a(+), E. coli BL21(DE3), Ni Sepharose; calculated 32 kDa", "T1 sequence (A0A0G3G397 1-282)": "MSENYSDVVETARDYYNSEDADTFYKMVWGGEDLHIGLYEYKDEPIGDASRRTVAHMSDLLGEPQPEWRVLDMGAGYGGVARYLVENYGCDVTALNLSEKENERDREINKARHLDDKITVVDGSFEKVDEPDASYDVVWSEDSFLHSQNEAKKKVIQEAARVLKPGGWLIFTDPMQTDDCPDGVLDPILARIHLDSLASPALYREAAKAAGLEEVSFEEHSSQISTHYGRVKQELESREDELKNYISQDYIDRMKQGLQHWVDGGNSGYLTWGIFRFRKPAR", "assay": "methyltransferase assay, HPLC of product", "type": "biochemical", "conditions": "10 mM SAM, MgCl2, pH 7.5, 37 °C"}, "TvGMT": {"target": "T2, TvGMT (Thioalkalivibrio versutus, UniProt A0A0G3G560)", "T2 construct": "gene TVD_00875; His-tagged, pET-28a(+), E. coli BL21(DE3), Ni Sepharose; calculated 32 kDa", "T2 sequence (A0A0G3G560 1-272)": "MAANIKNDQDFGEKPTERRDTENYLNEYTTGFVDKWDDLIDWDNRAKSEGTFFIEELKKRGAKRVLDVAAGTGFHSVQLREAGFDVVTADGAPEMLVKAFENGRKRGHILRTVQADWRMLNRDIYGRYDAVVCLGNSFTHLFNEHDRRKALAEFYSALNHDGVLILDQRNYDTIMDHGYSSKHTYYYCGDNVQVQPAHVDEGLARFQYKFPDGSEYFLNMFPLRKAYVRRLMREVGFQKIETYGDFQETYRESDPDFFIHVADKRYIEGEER", "assay": "methyltransferase assay, HPLC of product", "type": "biochemical", "conditions": "250 mM glycine, 10 mM SAM, MgCl2, pH 7.5, 37 °C"}}, "data": [{"smiles": "CN(C)CC(=O)O", "note": "[dimethylglycine]", "values": [{"measurement": "methyltransferase assay, HPLC of product", "setting": "TvSDMT; 50 mM dimethylglycine", "result": "exhibited activities on both sarcosine and dimethylglycine, showing a higher specific activity toward dimethylglycine"}]}, {"smiles": "NCC(=O)O", "note": "[glycine]", "values": [{"measurement": "methyltransferase assay, HPLC of product", "setting": "TvGMT", "result": "The purified TVD_RS00875 converted glycine to sarcosine with a relatively high specific activity"}]}, {"smiles": "CNCC(=O)O", "note": "[sarcosine]", "values": [{"measurement": "methyltransferase assay, HPLC of product", "setting": "TvSDMT; 60 mM sarcosine", "result": "TvSDMT, exhibited activities on both sarcosine and dimethylglycine"}]}]}
